Measured values: patent publication US10189839B2, “Tricyclic imidazole compounds as inhibitors of tryptophan hydroxylase” (ACTELION PHARMACEUTICALS LTD, priority 2013, dated 2019)

Biological target: T1, full length human TPH1 (Homo sapiens, UniProt P17752)
T1 construct: To generate the enzyme, full length human TPH1 is cloned into the plasmid pET20b(+); made in house; host or cells: E. coli
T1 sequence (P17752 1-444): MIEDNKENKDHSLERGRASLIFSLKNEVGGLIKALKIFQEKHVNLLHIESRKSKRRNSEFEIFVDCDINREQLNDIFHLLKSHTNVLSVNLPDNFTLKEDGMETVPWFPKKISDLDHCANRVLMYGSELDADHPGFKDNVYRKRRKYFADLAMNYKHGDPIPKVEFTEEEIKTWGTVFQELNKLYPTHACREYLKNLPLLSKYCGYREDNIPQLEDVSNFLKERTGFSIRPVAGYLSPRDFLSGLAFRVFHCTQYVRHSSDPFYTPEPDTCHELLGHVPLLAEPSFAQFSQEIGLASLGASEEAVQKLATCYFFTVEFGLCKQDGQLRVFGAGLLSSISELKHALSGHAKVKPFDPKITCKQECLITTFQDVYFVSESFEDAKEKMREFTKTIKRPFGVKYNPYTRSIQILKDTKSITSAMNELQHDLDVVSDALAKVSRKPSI
Test: Biochemical in vitro assay using fluorescence readout (TPH1 enzyme activity)
Conditions: Table 1, mean where determined several times
Outline: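 IC50 (mean of repeats) derived from 5-hydroxy-L-tryptophan fluorescence at 540 nm (300 nm excitation) relative to vehicle, after perchloric acid stop. Reaction: 60 min, 15° C., pH 7.6 Tris-HCl, 40 μM L-tryptophan, 100 μM 6-methyltetrahydropterine, DTT, catalase, with 40-80 nM purified full-length human TPH1 from E. coli.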

IC50	SMILES
13 nM	CN(C)C(=O)c1ccc(OCC(=O)N2CCc3nc4n(c3C2c2ccc(C3CC3)cc2F)CCOC4)c(Cl)c1 (stereo not shown) [Example 6.2.2, 3-chloro-4-(2-(6-(4-cyclopropyl-2-fluorophenyl)-3,4,8,9-tetrahydro-1H-pyrido[4′,3′:4,5]imidazo[2,1-c][1,4]oxazin-7(6H)-yl)-2-oxoethoxy)-N,N-dimethylbenzamide]
100 nM	CCNC(=O)Nc1nc(C2c3c(nc4n3CCN(C(C)=O)C4)CCN2C(=O)COc2ccc(N3CCOCC3)nc2Cl)cs1 (stereo not shown) [Example 5.11.1, 1-(4-(7-acetyl-2-(2-((2-chloro-6-morpholinopyridin-3-yl)oxy)acetyl)-1,2,3,4,6,7,8,9-octahydropyrido[4′,3′:4,5]imidazo[1,2-a]pyrazin-1-yl)thiazol-2-yl)-3-ethylurea]
8 nM	O=C(COc1ccc(N2CCOCC2)cc1Cl)N1CCc2nc3n(c2C1c1ccc(C2CC2)cc1F)CCN(CC1CC1)C3 (stereo not shown) [Example 5.2.7, 2-(2-chloro-4-morpholinophenoxy)-1-(1-(4-cyclopropyl-2-fluorophenyl)-7-(cyclopropylmethyl)-3,4,6,7,8,9-hexahydropyrido[4′,3′:4,5]imidazo[1,2-a]pyrazin-2(1H)-yl)ethanone]
16 nM	CCc1nc(C)ccc1OCC(=O)N1CCc2nc3n(c2C1c1ccc(C2CC2)cc1F)CCN(CC1CC1)C3 (stereo not shown) [Example 5.2.6, 1-(1-(4-cyclopropyl-2-fluorophenyl)-7-(cyclopropyl-methyl)-3,4,6,7,8,9-hexahydropyrido[4′,3′:4,5]imida-zo[1,2-a]pyrazin-2(1H)-yl)-2-((2-ethyl-6-methylpyridin-3-yl)oxy)ethanone]
37 nM	CC(=O)N1CCn2c(nc3c2C(c2cnc(N(C)C)s2)N(C(=O)COc2ccc(N4CCOCC4)nc2Cl)CC3)C1 (stereo not shown) [Example 5.6.2, 1-(7-acetyl-1-(2-(dimethylamino)thiazol-5-yl)-3,4,6,7,8,9-hexahydropyrido[4′,3′:4,5]imidazo[1,2-a]pyrazin-2(1H)-yl)-2-((2-chloro-6-morpholinopyridin-3-yl)oxy)ethanone]
108 nM	N#Cc1ccc(OCC(=O)N2CCc3nc4n(c3C2c2ccc(C3CC3)cc2F)CCNC4)c(Cl)n1 (stereo not shown) [Example 5.2.11, 6-chloro-5-(2-(1-(4-cyclopropyl-2-fluorophenyl)-3,4,6,7,8,9-hexahydropyrido[4′,3′:4,5]imidazo[1,2-a]pyrazin-2(1H)-yl)-2-oxoethoxy)picolinonitrile]
11 nM	CC(=O)N1CCn2c(nc3c2C(c2ccc(Cl)cc2F)N(C(=O)COc2ccc(C(=O)N(C)C)nc2Cl)CC3)C1 (stereo not shown) [Example 5.1.3, 5-(2-(7-acetyl-1-(4-chloro-2-fluorophenyl)-3,4,6,7,8,9-hexahydropyrido[4′,3′:4,5]imidazo[1,2-a]pyrazin-2(1H)-yl)-2-oxoethoxy)-6-chloro-N,N-dimethylpicolinamide]
13 nM	CNC(=O)c1ccc(OCC(=O)N2CCc3nc4n(c3C2c2ccc(Cl)cc2F)CCN(C(C)=O)C4)c(Cl)n1 (stereo not shown) [Example 5.1.2, 5-(2-(7-acetyl-1-(4-chloro-2-fluorophenyl)-3,4,6,7,8,9-hexahydropyrido[4′,3′:4,5]imida-zo[1,2-a]pyrazin-2(1H)-yl)-2-oxoethoxy)-6-chloro-N-methylpicolinamide]
7 nM	CC(=O)N1CCn2c(nc3c2C(c2ccc(Cl)cc2F)N(C(=O)COc2ccc(N4CC(F)(F)C4)nc2Cl)CC3)C1 (stereo not shown) [Example 5.1.1, 1-(7-acetyl-1-(4-chloro-2-fluorophenyl)-3,4,6,7,8,9-hexahydropyrido[4′,3′:4,5]imida-zo[1,2-a]pyrazin-2(1H)-yl)-2-((2-chloro-6-(3,3-difluoroazetidin-1-yl)pyridin-3-yl)oxy)ethanone]
7 nM	CC(=O)N1CCn2c(nc3c2C(c2ccc(C4CC4)cc2F)N(C(=O)COc2ccc(N4CCOCC4)cc2Cl)CC3)C1 (stereo not shown) [Example 5.2.5, 1-(7-acetyl-1-(4-cyclopropyl-2-fluorophenyl)-3,4,6,7,8,9-hexahydropyrido[4′,3′:4,5]imidazo[1,2-a]pyrazin-2(1H)-yl)-2-(2-chloro-4-morpholinophenoxy)ethanone]

More lines, now with the values behind:

SMILES	IC50
CS(=O)(=O)c1ccc(OCC(=O)N2CCc3nc4n(c3C2c2ccc(Cl)cc2F)CCCC4)c(Cl)n1 (stereo not shown) [Example 1.1.28, 1-(1-(4-chloro-2-fluorophenyl)-3,4,6,7,8,9-hexahydroimidazo[1,2-a:5,4-c′]dipyridin-2(1H)-yl)-2-((2-chloro-6-(methylsulfonyl)pyridin-3-yl)oxy)ethan-1-one]	90 nM
CS(=O)(=O)Nc1ccc(OCC(=O)N2CCc3nc4n(c3C2c2ccc(Cl)cc2F)CCCCC4)c(Cl)n1 (stereo not shown) [Example 3.1.1, N-(6-chloro-5-(2-(1-(4-chloro-2-fluorophenyl)-3,4,7,8,9,10-hexahydro-1H-pyrido[4′,3′:4,5]imidazo[1,2-a]azepin-2(6H)-yl)-2-oxoethoxy)pyridin-2-yl)methanesulfonamide]	26 nM
O=C(COc1ccc(C2CC2)nc1Cl)N1CCc2nc3n(c2C1c1ccc(Cl)cc1F)CCCC3 (stereo not shown) [Example 1.1.14, 1-(1-(4-chloro-2-fluorophenyl)-3,4,6,7,8,9-hexahydroimidazo[1,2-a:5,4-c′]dipyridin-2(1H)-yl)-2-((2-chloro-6-cyclopropylpyridin-3-yl)oxy)ethanone]	16 nM
CCc1nc(NS(C)(=O)=O)ccc1OCC(=O)N1CCc2nc3n(c2C1c1ccc(C)c(F)c1F)CCC3 (stereo not shown) [Example 2.3.1, N-(5-(2-(1-(2,3-difluoro-4-methylphenyl)-3,4,7,8-tetrahydro-1H-pyrrolo[2′,1′:2,3]imidazo[4,5-c]pyridin-2(6H)-yl)-2-oxoethoxy)-6-ethylpyridin-2-yl)methanesulfonamide]	8 nM
O=C(NC1CC1)c1ccc(OCC(=O)N2CCc3nc4n(c3[C@@H]2c2ccc(Cl)cc2F)CCCC4)c(Cl)n1 [Example 1.1.16, (S)-6-chloro-5-(2-(1-(4-chloro-2-fluorophenyl)-3,4,6,7,8,9-hexahydroimidazo[1,2-a:5,4-c′]dipyridin-2(1H)-yl)-2-oxoethoxy)-N-cyclopropylpicolinamide]	12 nM
CCc1nc(C(=O)NC2CC2)ccc1OCC(=O)N1CCc2nc3n(c2C1c1sccc1F)CCCC3 (stereo not shown) [Example 1.14.2, N-cyclopropyl-6-ethyl-5-(2-(1-(3-fluorothiophen-2-yl)-3,4,6,7,8,9-hexahydroimidazo[1,2-a:5,4-c′]dipyridin-2(1H)-yl)-2-oxoethoxy)picolinamide]	12 nM
CCc1nc(C(=O)NC2CC2)ccc1OCC(=O)N1CCc2nc3n(c2[C@@H]1c1sc(C)nc1C)CCCC3 [Example 1.10.17, (R)-N-cyclopropyl-5-(2-(1-(2,4-dimethylthiazol-5-yl)-3,4,6,7,8,9-hexahydroimidazo[1,2-a:5,4-c′]dipyridin-2(1H)-yl)-2-oxoethoxy)-6-ethylpicolinamide]	5 nM
Cc1ccc(C2c3c(nc4n3CCCC4)CCN2C(=O)COc2ccc(C(=O)N(C)C3CC3)nc2Cl)c(F)c1F (stereo not shown) [Example 1.9.3, 6-chloro-N-cyclopropyl-5-(2-(1-(2,3-difluoro-4-methyl-phenyl)-3,4,6,7,8,9-hexahydroimidazo[1,2-a:5,4-c′]di-pyridin-2(1H)-yl)-2-oxoethoxy)-N-methylpicolinamide]	27 nM
O=C(COc1ccc(-c2ncco2)nc1Cl)N1CCc2nc3n(c2C1c1ccc(C2CC2)cc1F)CCCC3 (stereo not shown) [Example 1.8.2, 2-((2-chloro-6-(oxazol-2-yl)pyridin-3-yl)oxy)-1-(1-(4-cyclopropyl-2-fluorophenyl)-3,4,6,7,8,9-hexahydroimi-dazo[1,2-a:5,4-c′]dipyridin-2(1H)-yl)ethanone]	17 nM
